PubChem BioAssay (NCI)
Values joined by “and” are separate entries in the source; they are usually repeats but may differ in a detail not shown here. Identical values can stand only once.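 The compound was tested at five concentrations on cells cultured in 96-well plates, with a 48-hour exposure period. The concentration for 50% growth inhibition is given as GI50. TGI denotes the concentration required for complete inhibition of growth.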

Legend:
Experiment in all cases: DTP human tumour cell line panel, 48 h
SF-295 CNS = tested on: SF-295 CNS
SW-620 colon = tested on: SW-620 colon
NCI-H226 lung = tested on: NCI-H226 lung
SK-MEL-5 melanoma = tested on: SK-MEL-5 melanoma
SNB-75 CNS = tested on: SNB-75 CNS
RPMI-8226 leukemia = tested on: RPMI-8226 leukemia
HOP-62 NSCLC = tested on: HOP-62 NSCLC
ACHN renal = tested on: ACHN renal
RXF 393 renal = tested on: RXF 393 renal
HCT-116 colon = tested on: HCT-116 colon

Row | Compound | TGI (SF-295 CNS) [µM] | TGI (SW-620 colon) | TGI (NCI-H226 lung) | TGI (SK-MEL-5 melanoma) | TGI (SNB-75 CNS) [µM] | TGI (RPMI-8226 leukemia) | TGI (HOP-62 NSCLC) | TGI (ACHN renal) | TGI (RXF 393 renal) | TGI (HCT-116 colon) | GI50 (SF-295 CNS) [µM] | GI50 (SW-620 colon) | GI50 (NCI-H226 lung) [µM] | GI50 (SK-MEL-5 melanoma) | GI50 (SNB-75 CNS) | GI50 (RPMI-8226 leukemia) | GI50 (HOP-62 NSCLC) | GI50 (ACHN renal) | GI50 (RXF 393 renal) | GI50 (HCT-116 colon)
1 | Cc1cnc(NCCCN(C)C)c2c1[nH]c1ccc3cc(O)ccc3c12 | 2.89 | 1.97 µM | 1.73 µM | 2.2 µM | 1.87 | 10.1 µM | 1.86 µM | 4.89 µM | 2.16 µM | 1.44 µM |  |  |  |  |  |  |  |  |  | 
2 | O=C(Nc1ccc(F)cc1)Nc1ccc(Cl)c([N+](=O)[O-])c1 | 7.93 | 13.9 µM | 9.3 µM | 3.22 µM | > 100 | 8.58 µM | 15.9 µM | 11 µM | 6.71 µM | 11.8 µM | 2.27 | 3.45 µM | 2.28 | 1.76 µM | 5.93 µM | 1.89 µM | 3.78 µM | 2.96 µM | 1.75 µM | 3.07 µM
3 | CC1(C(=O)O)CCC[C@@]2(C)C1CC[C@@]1(C)c3cocc3CCC21 (some centres undefined) | > 100 | > 100 µM | > 100 µM | > 100 µM | > 100 | > 100 µM | > 100 µM | > 100 µM | > 100 µM | > 100 µM |  |  |  |  |  |  |  |  |  | 
4 | O=[N+]([O-])c1cccc(-c2csc(NNC3=NC/C(=C/c4ccc5c(c4)OCO5)S3)n2)c1 | > 100 | > 100 µM | 43.3 µM | 38.6 µM | 46.5 | 93.5 µM | > 100 µM | > 100 µM | 47.4 µM | > 100 µM |  |  |  |  |  |  |  |  |  | 
5 | Nc1c(C(=O)c2cccc(CCS(N)(=O)=O)c2)cnn1-c1ccc(F)cc1 | > 25 | > 25 µM | > 25 µM | > 25 µM | > 25 | > 25 µM | > 25 µM | > 25 µM | > 25 µM | > 25 µM | > 25 | > 25 µM | > 19.7 | > 16.7 µM | > 25 µM | > 25 µM | > 25 µM | > 25 µM | > 25 µM | > 25 µM
6 | NC(N)=NS(=O)(=O)c1ccc(Nc2c3ccccc3nc3c(C(=O)NCCO)cccc23)cc1 | 60.7 |  | 0.322 µM |  | 55.2 |  |  |  |  | > 100 µM | 20.5 | 17.2 µM |  | 15.6 µM |  | 15 µM | 20 µM | 20 µM | 19.6 µM | 21.9 µM
7 | COc1cc2cc(OC)c3cc4c(cc3c2c(OC)c1OC)OCO4 | > 76 | 43.8 µM | > 100 µM | > 57.2 µM | > 46.1 | 52.9 µM | > 100 µM | > 100 µM | > 100 µM | > 84.4 µM |  |  |  |  |  |  |  |  |  | 
8 | COc1cccc(C2c3cc4c(cc3OC(C)(N3CCCC3)C2C)OCO4)c1O (centres undefined) | 17.5 | > 100 µM | 19.9 µM | 13.3 µM | 17.2 | 36.5 µM | 31.6 µM | > 83.1 µM | > 40.6 µM | 47.9 µM |  |  |  |  |  |  |  |  |  | 
9 | COC(=O)/C(C#N)=C1\NC(=O)c2ccccc21 | > 100 | > 100 µM | > 100 µM | > 100 µM | 76.9 | > 100 µM | > 100 µM | > 100 µM | > 100 µM | > 100 µM |  |  |  |  |  |  |  |  |  | 
10 | C[C@@H](Oc1cc(-n2cnc3ccc(CN4CCN(C)CC4)cc32)sc1C(N)=O)c1ccccc1C(F)(F)F | > 10 | 12.9 µM and > 10 µM | 19 µM and > 10 µM | 1.51 µM and > 10 µM |  | 13.6 µM and > 10 µM | 12.7 µM and > 10 µM | 15.8 µM and > 10 µM | 10.2 µM and > 10 µM | 12.9 µM and > 10 µM | 0.0486 | < 0.01 µM and 0.00462 µM |  | 0.0218 µM and 0.0976 µM | 0.0363 µM and 0.0249 µM | 0.0546 µM and 0.0384 µM | 0.0118 µM and 0.0199 µM | 0.442 µM and 0.156 µM | < 0.0141 µM and 0.0224 µM | < 0.0125 µM and 0.0139 µM
11 | Cc1ccc(CN2CCC(C(=O)Nc3ccc(-c4cc5ccccc5[nH]4)cc3)CC2)o1 | > 100 | > 100 µM | > 100 µM | > 100 µM | 33.1 | > 100 µM | > 100 µM | > 100 µM | > 100 µM | > 100 µM | 71 | > 100 µM | > 100 | 46.6 µM | 12.7 µM | > 100 µM | 55.8 µM | > 100 µM | > 100 µM | > 100 µM
12 | O=[N+]([O-])c1ccc2c(c1)/C(=N/N=C1c3ccccc3Cc3ccccc31)c1cc([N+](=O)[O-])cc([N+](=O)[O-])c1-2 | 3.7 | 9.38 µM | 31.5 µM | 15 µM | 9.28 | > 100 µM | 7.01 µM | 8.79 µM | 8.59 µM | 3.08 µM |  |  |  |  |  |  |  |  |  | 
13 | CNS(=O)(=O)NNS(=O)(=O)c1ccccc1 | > 100 | > 100 µM | > 100 µM | > 100 µM | > 100 | > 100 µM | > 100 µM | > 100 µM | > 100 µM | > 100 µM |  |  |  |  |  |  |  |  |  | 
14 | O=C(Nc1nc2ccc([N+](=O)[O-])cc2s1)C(=O)C(C1OC(=O)c2ccccc21)[N+](=O)[O-] (centres undefined) | > 100 | > 100 µM | > 100 µM | > 100 µM | > 100 | > 100 µM | > 100 µM | > 100 µM | > 100 µM | > 100 µM |  |  |  |  |  |  |  |  |  | 
15 | COc1ccccc1N1C(=O)C2c3[nH]c4ccccc4c3C3CCC(C(C)(C)C)CC3C2C1=O (centres undefined) | > 100 | > 100 µM | > 100 µM | > 100 µM | > 100 | > 100 µM | > 100 µM | > 100 µM | > 100 µM | > 100 µM |  |  |  |  |  |  |  |  |  | 
16 | Nc1ccccc1C#C/C=C\C#Cc1ccccc1OC(F)(F)F | 11.4 | 16 µM | 40.3 µM | 15 µM | 7.85 | 18 µM | 20.6 µM | 50.4 µM | 23.9 µM | 16.7 µM | 3.03 | 3.96 µM | 14 | 4 µM | 2.47 µM | 3.55 µM | 6.1 µM | 9.15 µM | 4.39 µM | 4.45 µM
17 | O=C(Nc1ccccc1)c1c(O)[nH]c(=S)[nH]c1=O | 108 | 97.7 µM and > 250 µM | 107 µM | 46 µM and 85.2 µM | 91.9 | 79 µM and > 25 µM | 82.5 µM and > 250 µM | 78.7 µM | 96.3 µM and 68.9 µM | 111 µM and > 250 µM |  | 74.4 µM |  | 40.5 µM |  |  | 73.2 µM |  |  | 58.6 µM
